In ChEMBL document CHEMBL5727115, “TYK2 inhibitors and uses thereof” (2019):

Biological target: Non-receptor tyrosine-protein kinase TYK2 (Homo sapiens, UniProt P29597)
Assay: TYK2 JH2 Domain Binding Assay: Binding constants for compounds of the present invention against the JH2 domain were determined by the following protocol for a KINOMEscan® assay (DiscoveRx). A fusion protein of a partial length construct of human TYK2 (JH2domain-pseudokinase) (amino acids G556 to D888 based on reference sequence NP_003322.3) and the DNA binding domain of NFkB was expressed in transiently transfected HEK293 cells. From these HEK 293 cells, extracts were prepared in M-PER extraction buffer (Pierce) in the presence of Protease Inhibitor Cocktail Complete (Roche) and Phosphatase Inhibitor Cocktail Set II (Merck) per manufacturers' instructions. The TYK2 (JH2domain-pseudokinase) fusion protein was labeled with a chimeric double-stranded DNA tag containing the NFkB binding site (5′-GGGAATTCCC-3′ (SEQ ID NO: 1)) fused to an amplicon for qPCR readout, which was added directly to the expression extract (the final concentration of DNA-tag in the binding reaction is 0.1 nM).Streptavidin-coated magnetic beads (Dynal M280) were treated with a biotinylated small molecule ligand for 30 minutes at room temperature to generate affinity resins the binding assays. […]
Format: cell-based

Chain of Non-receptor tyrosine-protein kinase TYK2 (P29597 whole entry, the tested form may be a part): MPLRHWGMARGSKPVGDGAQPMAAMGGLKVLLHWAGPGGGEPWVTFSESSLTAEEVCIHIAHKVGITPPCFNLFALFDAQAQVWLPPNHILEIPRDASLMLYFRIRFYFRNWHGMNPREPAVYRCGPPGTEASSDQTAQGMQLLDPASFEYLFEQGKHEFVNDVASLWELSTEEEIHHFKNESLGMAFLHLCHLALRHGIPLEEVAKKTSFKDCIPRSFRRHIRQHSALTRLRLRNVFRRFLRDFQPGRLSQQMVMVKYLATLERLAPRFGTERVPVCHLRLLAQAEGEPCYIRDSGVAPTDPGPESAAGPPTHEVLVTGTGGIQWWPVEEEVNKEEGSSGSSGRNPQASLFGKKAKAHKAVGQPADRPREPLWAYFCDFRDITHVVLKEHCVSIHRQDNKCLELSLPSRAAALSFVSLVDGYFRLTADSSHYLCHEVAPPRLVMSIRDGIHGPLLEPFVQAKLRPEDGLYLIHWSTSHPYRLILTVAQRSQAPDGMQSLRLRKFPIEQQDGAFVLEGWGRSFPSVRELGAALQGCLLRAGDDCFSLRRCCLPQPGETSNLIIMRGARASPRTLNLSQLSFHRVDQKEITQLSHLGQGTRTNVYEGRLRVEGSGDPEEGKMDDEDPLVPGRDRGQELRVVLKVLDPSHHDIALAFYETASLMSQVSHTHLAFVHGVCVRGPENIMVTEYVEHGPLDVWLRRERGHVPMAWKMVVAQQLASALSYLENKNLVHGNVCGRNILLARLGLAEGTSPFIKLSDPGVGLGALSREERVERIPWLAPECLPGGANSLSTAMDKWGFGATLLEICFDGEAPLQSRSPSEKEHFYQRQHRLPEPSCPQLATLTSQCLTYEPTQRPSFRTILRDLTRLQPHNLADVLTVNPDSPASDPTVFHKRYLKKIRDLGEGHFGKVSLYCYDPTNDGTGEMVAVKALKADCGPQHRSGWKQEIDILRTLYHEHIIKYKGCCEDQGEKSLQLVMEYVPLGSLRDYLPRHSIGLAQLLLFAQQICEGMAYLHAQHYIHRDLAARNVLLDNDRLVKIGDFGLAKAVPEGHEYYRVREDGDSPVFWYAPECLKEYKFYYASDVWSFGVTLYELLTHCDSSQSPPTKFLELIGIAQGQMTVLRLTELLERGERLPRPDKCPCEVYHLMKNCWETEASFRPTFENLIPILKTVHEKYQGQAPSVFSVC

Kd: > 10 nM
SMILES: COc1cc(Cl)ccc1Nc1cc(Nc2cc(C)ccn2)nc2[nH]n(C)c(=O)c12
